Reference: US4906755A, “Esters of hexahydro-8-hydroxy-2,6-methano-2H-quinolizin-3-(4H)-one and related compounds” (Merrell Dow Pharmaceuticals Inc., priority 1989, dated 1990)
Where a name gives a salt, the structure may show the parent alone.

Legend:
[1] = animal experimental model (Miner et al.; Costall et al. 1986); cited from earlier work
[2] = double-blind clinical trial (Loisy et al. 1985); cited from earlier work
5-HT M-receptor = conditions: 5-HT receptor antagonism; literature values (Fozard et al.); cited from earlier work
[3] = tested on: Von Bezold-Jarisch Reflex induced by 5-HT; assay: Von Bezold-Jarisch Reflex induced by 5-HT injected intravenously into the rat; type: in vivo
Text: The activity of these compounds against 5-HT can be assessed in vivo by measurement of the effect of the compound on the Von Bezold-Jarisch Reflex induced by 5-HT injected intravenously into the rat (see Paintal A. S., Physiol. Rev., 53, 159-227 […]; J. R. Fozard, Naunyn-Schmiedeberg's Arch. Pharmacol., 326, (1984) 36-44). The transient cardiac slowing arises from an increased afferent vagus activity arising from stimulation by 5-HT of sensory afferent fibers in and around the heart.

[4] = slow intravenous injection, 10 mg; cited from earlier work
[5] = doses of 0.01-0.1 mg/kg given intravenously
[6] = doses of 0.25-1 mg/kg given orally

SMILES	prevention of nausea and vomiting induced by cancer chemotherapeutic agents [1]	pA2 (5-HT M-receptor)	other results
CN1[C@@H]2CC[C@H]1C[C@@H](OC(=O)c1cc(Cl)cc(Cl)c1)C2 [3,5-dichlorobenzoyltropine]	highly effective	–	treatment of the acute migraine attack [2]: proved an effective treatment
CN1[C@@H]2CC[C@H]1C[C@@H](OC(=O)c1c[nH]c3ccccc13)C2 [(3α-tropanyl)-lH-indole-3-carboxylic acid ester]	highly effective	–	–
CN1[C@@H]2CC[C@H]1C[C@@H](OC(=O)c1ccccc1)C2 [benzoyltropine]	–	7.2	–
Cc1cc(C)cc(C(=O)O[C@@H]2C[C@@H]3C[C@@H]4C[C@H](C2)N3CC4=O)c1 [endo-8-(3,5-dimethylbenzoyloxy)hexahydro-2,6-methano-2H-quinolizin3(4H)-one]	–	–	suppression of the Von Bezold-Jarisch Reflex response [3, 5]: suppressed the response dose-dependently; suppression of the Von Bezold-Jarisch Reflex response [3, 6]: suppressed the response dose-dependently
O=C(O[C@@H]1C[C@@H]2C[C@@H]3C[C@H](C1)N2CC3=O)c1c[nH]c2ccccc12 [endo-hexahydro-8-(3-indolylcarbonyloxy)-2,6-methano-2H-quinolizin-3(4H)onehydrochloride]	–	–	suppression of the Von Bezold-Jarisch Reflex response [3, 5]: suppressed the response dose-dependently; suppression of the Von Bezold-Jarisch Reflex response [3, 6]: suppressed the response dose-dependently
CCN(CC)CCNC(=O)c1cc(Cl)c(N)cc1OC [metoclopramide]	highly effective	7.2	relief of an acute migraine attack [4]: immediate relief
COC(=O)[C@H]1[C@@H](OC(=O)c2ccccc2)C[C@@H]2CC[C@H]1N2 [nor (-) cocaine]	–	7.7	–
CN1[C@@H]2CC[C@H]1C[C@H](OC(=O)c1ccccc1)C2 [pseudotropyl benzoate]	–	7.0	–
